Results: publication PMC4995024, “Ligand Binding at the α4-α4 Agonist-Binding Site of the α4β2 nAChR Triggers Receptor Activation through a Pre-Activated Conformational State” (PLoS ONE, 2016)
Several values for one entry are separate records, joined by “and”; a condition that tells them apart may be missing. Equal entries are not always repeated. Entries after “also recorded” stand apart in the source; their conditions may differ. Where two headings read alike, the source gives them in different places. Marks after values point to notes of the source that are not given here.

Columns and labels:
3α4:2β2 nAChR [1] = target: T1, 3α4:2β2 nAChR (Homo sapiens, UniProt P17787+P43681); assay: Linear kinetic models (Model 1, Model 2) of 3α4:2β2 receptor activation; conditions: for Constant multiplier C (CE / CF): from change in EC50 and Po,max when NS9283 (10 μM) applied in addition to the agonist
Description: To determine how binding at the α4-α4 site alters receptor transitions during activation, two simple linear kinetic models were used to describe receptor activation when two α4-β2 binding sites are occupied. For simplicity the binding of two ligands at α4-β2 sites is combined into a single step. The first model (Model 1) is a three-step model designed to determine whether the third ligand alters: (i) the binding affinity of ligands at the α4-β2 site (cooperativity); (ii) the transitions between closed and open states (gating) or (iii) the transitions between open and a distinct closed state in the presence of ligand (desensitization). The second model (Model 2) expanded the gating transitions to investigate whether a pre-activation (flipping) step is altered. We then determined which equilibrium constant was principally modulated in these models when NS9283 bound to the α4-α4 site potentiated the Saz-A or TC-2559 responses.
The open probability for the first model is given by (Fig 4A): PoCtrl=E.[A]/K+[A](1+E+E.D) (1) Where E is the gating constant, [A] is the agonist concentration, K is the dissociation constant of Saz-A or TC-2559, and D is the desensitizing constant. By rearranging Eq 1 to isolate [A]: PoCtrl=E/1+E+E.D/1+K/[A].(1+E+E.D) (2)
The open probability curve will fit to a Hill equation with a slope coefficient of one, since the ligand binding steps have been simplified by aggregating into a single transition. It follows from Eq 2 that the maximum open probability (when [A] approaches infinity) is given by: Po,maxCtrl=E/1+E+E.D (3) and the half-maximum effective concentration is: EC50Ctrl=K/1+E+E.D (4) It is apparent from Eq 3 that to determine the equilibrium constants for this kinetic model, the open probability (Po) of the receptor must be estimated by normalizing to the responses to ACh and NS206, rather than normalizing to the response of a saturating concentration of ACh.
The open probability in the presence of NS9283 ( Po.maxNS ; the superscript denotes when NS9283 is co-applied) and half-maximum effective concentration ( EC50NS ) can be described by substituting E with CE.E in Eqs 3 and 4 respectively. The value of CE can then be calculated from the ratios of the EC50 values and the maximum open probabilities in control and when potentiated by NS9283, as follows: EC50ctrl/Po,maxctrl=K/E (5) EC50NS/Po,maxNS=K/CE.E (6) CE=Po,maxNS/Po,maxctrl×EC50ctrl/EC50NS (7)
As NS9283 binds selectively to the α4-α4 site, we assumed that it has the same multiplier effect; regardless of which partial agonist is bound at the α4-β2 site. […] Equilibrium constants were then calculated using the following equations. Rearranging Eq 3: 1/Po.maxCtrl−1=1+D.E/E (8)
Rearranging to give D. D=CE(1/Po,maxNS−1)−(1/Po,maxctrl−1)/CE−1 (11)
Rearranging Eq 3 to give E. E=Po,maxctrl/(1−Po,maxctrl−D.Po,maxctrl) (12)
Rearranging Eqs 5 and 6 to give K K=E.EC50ctrl/Po,maxctrl=CE.E.EC50NS/Po,maxNS (13)
The open probability for this model is given by the following: Po=E.F.[A]/K+[A](1+F+E.F) (17)
Where K is the dissociation constant, F is the pre-activating equilibrium constant and E is the gating constant. It also follows that the maximum open probability is given by: Po,max=E.F/1+F+E.F (18)
Thus, both F and E will have an influence on the observed macroscopic efficacy. The half-maximum effective concentration is: EC50=K/1+F+E.F (19)
We investigated the possibility that NS9283 increases the pre-activation constant, F, by a factor, CF, in Model 2 (Fig 5B; Scheme 2).
By subtracting Eq 21 from Eq 22 and re-arranging in terms of E: E=CF−1/CF(1/Po,maxNS−1)−(1/Po,maxctrl−1) (23)
The value of E can then be calculated using Eq 23.
2α4:3β2 nAChR = target: T2, 2α4:3β2 nAChR (Homo sapiens, UniProt P17787+P43681); assay: Two-electrode voltage-clamp electrophysiology in Xenopus oocytes, WT 2α4:3β2 receptor; format: cell-based; conditions: for Agonist type: 2α4:3β2, relative to saturating ACh (1 mM)
T2 construct: expressed in transfected cells; host or cells: Xenopus laevis oocytes injected with cRNA (α4:β2 ratio 1:4)
Description: (§1) cDNA encoding human nAChR α4 and β2 subunits were cloned, and cRNA was prepared as previously described. A triple-point-mutated β2^m subunit with the mutations V136H, F144Q, and L146T was constructed as previously described.
(§2) This study was carried out in strict accordance with the Australian Code of Practice for the Care and Use of Animals for Scientific Purposes. The protocol for this specific study was approved by the Animal Ethics Committee of the University of Sydney (Protocol number: 2013/5915). All surgical procedures were carried out in under anesthesia induced by immersion in a tricaine solution to ameliorate suffering. […] Mature female Xenopus laevis frogs were anaesthetised with 0.17% tricaine (buffered with 0.06% sodium bicarbonate) for 15 minutes, after which the loss of righting reflex was confirmed before transferring on to ice where surgeries were performed. A small (1–2 cm) abdominal incision was made through both the skin and muscle layer with surgical knives. Ovary lobes were removed with a pair of forceps, and kept in oocyte releasing 2 (OR2) buffer (82.5 mM NaCl, 2 mM KCl, 1 mM MgCl2, 5 mM HEPES hemisodium; pH 7.4). The skin and muscle layer were sutured separately, and frogs were allowed to recover for six months before they were reselected for surgeries. A total of five recoverable surgeries with 6–12 months recovery periods between surgeries were performed on each frog to reduce the adverse effects of Xenopus transportation into Australia, as approved by the Animal Ethics Committee of the University of Sydney (Protocol number: 2013/5915) before a terminal surgery was performed, in which a lethal dose of tricaine (0.5%) was used. Briefly, lobes from ovaries of female adult X. laevis were removed and defolliculated to obtain isolated oocytes. Oocytes were injected with a total of ∼25 ng of cRNA encoding human WT receptor as shown earlier to express 3α4:2β2 and 2α4:3β2 [17], and incubated for 2–5 days at 15–18°C.
(§3) Oocytes were subjected to two-electrode voltage-clamp electrophysiological testing using a custom-built system where solutions were applied directly to the oocytes via a glass capillary tube placed in the vicinity of the cell. This ensured a solution exchange rate faster than two seconds. Ligand was applied for 30 sec and peak current amplitudes were measured. To minimise the effects of long desensitized states, the number of applications of ligand at each oocyte was minimized rather than performing full concentration-response curves on individual oocytes.
(§4) Concentration–response curves for Sazetidine-A and TC-2559 were fitted using GraphPad Prism 6 to a monophasic Hill equation with Hill Slope of 1: I=Imax(1/1+(EC50/A)) Where Imax is the maximum current, EC50 is the concentration that produces the half-maximal response and [A] is the concentration of ligand.

3α4:2β2 nAChR [2] = target: T1, 3α4:2β2 nAChR; assay: Two-electrode voltage-clamp electrophysiology in Xenopus oocytes, WT 3α4:2β2 receptor; format: cell-based; set-up: expressed in transfected cells; host or cells: Xenopus laevis oocytes injected with cRNA (α4:β2 ratio 4:1); conditions: for Decrease of EC50 value by co-application of NS9283 / Increase of maximum response by co-application of NS9283: 3α4:2β2, NS9283 10 μM; for Est Pomax: normalized to 1 mM ACh + NS206 (10 μM); for Agonist type: 3α4:2β2, relative to saturating ACh (1 mM)
Description: as §1, §2, §3, §4
Concentration–response curves for ACh were fitted using GraphPad Prism 6 to a biphasic Hill equation with Hill slopes of 1: I=Imax*((Frac1/1+(EC50(1)/[A]))+(Frac2/1+(EC50(2)/[A]))) Where Frac1 and Frac2 are the fractions and EC50(1) and EC50(2) are the half-maximal concentrations of high and low-sensitivity phases of the concentration-response curves, respectively.
Ideally, single-channel recordings would be used to estimate the Po,max values; however this is technically highly challenging for α4β2 nAChRs due to channel rundown and desensitization. To overcome this, an alternate method utilizing co-application of ACh and NS206, a positive allosteric modulator (PAM), was used to estimate the maximum open probability (Est. Po,max) at 3α4:2β2 receptors. […] We have assumed that when both the positive allosteric modulator and native ligand ACh are bound, the probability of the receptor being opened is approaching one, and was previously successfully used for other members of LGICs.

[3] = system: T3, 3α4:2β2^HQT nAChR (β2 V136H, F144Q, L146T); assay: Two-electrode voltage-clamp electrophysiology in Xenopus oocytes, mutated 3α4:2β2^HQT receptor; format: cell-based, human; conditions: for I/I1mM ACh: 3α4:2β2^HQT; for Activation of 3α4:2β2^HQT mutant receptors: receptor with three α4-α4-like interfaces
T3 construct: expressed in transfected cells; host or cells: Xenopus laevis oocytes injected with cRNA
Description: as §1, §2, §3
Nevertheless, a contribution to Saz-A and TC-2559 activation from binding at the α4-α4 interface cannot be excluded from these experiments. Therefore, Saz-A and TC-2559 were applied to mutated 3α4:2β2^HQT receptors where the α4-β2 binding site is abolished. […]

3α4:2β2 nAChR [4] = target: T1, 3α4:2β2 nAChR; set-up: expressed in transfected cells; host or cells: Xenopus laevis oocytes injected with cRNA (α4:β2 ratio 4:1); method as in PMID 16720757, PMID 21795528; conditions: 3α4:2β2 stoichiometry; cited from earlier work
[5] = read-out: K (binding equilibrium constant), Model-1, Model 1, 3α4:2β2
[6] = read-out: K (binding equilibrium constant), Model-2, Model 2, 3α4:2β2
[7] = 3α4:2β2, co-applied with NS9283 (10 μM)

T2 sequence (P43681 29-627 limits assumed): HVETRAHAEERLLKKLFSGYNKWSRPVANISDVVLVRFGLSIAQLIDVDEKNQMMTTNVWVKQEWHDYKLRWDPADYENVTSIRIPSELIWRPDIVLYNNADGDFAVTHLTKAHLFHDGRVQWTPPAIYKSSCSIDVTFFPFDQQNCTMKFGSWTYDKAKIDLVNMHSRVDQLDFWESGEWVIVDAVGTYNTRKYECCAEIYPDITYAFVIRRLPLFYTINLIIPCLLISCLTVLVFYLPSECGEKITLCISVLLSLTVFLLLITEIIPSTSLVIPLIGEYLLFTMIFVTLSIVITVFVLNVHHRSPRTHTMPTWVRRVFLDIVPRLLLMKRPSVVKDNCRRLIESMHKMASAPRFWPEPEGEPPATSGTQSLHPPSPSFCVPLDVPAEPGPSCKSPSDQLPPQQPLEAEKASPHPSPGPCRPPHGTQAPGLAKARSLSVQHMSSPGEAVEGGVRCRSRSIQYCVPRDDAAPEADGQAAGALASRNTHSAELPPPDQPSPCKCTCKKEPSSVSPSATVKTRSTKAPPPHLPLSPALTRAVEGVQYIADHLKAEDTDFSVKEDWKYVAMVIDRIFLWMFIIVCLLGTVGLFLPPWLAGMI
T2 sequence (P17787 26-502): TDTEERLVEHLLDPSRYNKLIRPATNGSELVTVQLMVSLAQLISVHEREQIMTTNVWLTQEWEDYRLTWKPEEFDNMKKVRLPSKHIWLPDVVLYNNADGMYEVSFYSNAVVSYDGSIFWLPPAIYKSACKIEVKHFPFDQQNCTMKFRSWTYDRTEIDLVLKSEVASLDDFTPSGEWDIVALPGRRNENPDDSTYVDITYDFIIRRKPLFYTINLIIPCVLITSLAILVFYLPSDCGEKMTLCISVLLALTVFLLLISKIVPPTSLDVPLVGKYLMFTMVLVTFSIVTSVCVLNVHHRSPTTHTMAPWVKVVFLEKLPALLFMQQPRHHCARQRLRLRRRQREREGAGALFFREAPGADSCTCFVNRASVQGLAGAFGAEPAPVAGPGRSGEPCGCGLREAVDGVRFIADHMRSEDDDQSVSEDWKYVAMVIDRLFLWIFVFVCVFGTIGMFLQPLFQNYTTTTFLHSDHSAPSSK
T1 sequence (P43681 29-627 limits assumed): as the sequence (P43681 29-627 limits assumed) above
T1 sequence (P17787 26-502): as the sequence (P17787 26-502) above

Compound: CCOc1cncc(/C=C/CCNC)c1 [TC-2559]
- D (desensitized equilibrium constant), Model-1 (3α4:2β2 nAChR [1]; Model 1, 3α4:2β2): 0.28
- E (gating equilibrium constant), Model-1 (3α4:2β2 nAChR [1]; Model 1, 3α4:2β2): 0.27
- E (gating equilibrium constant), Model-2 (3α4:2β2 nAChR [1]; Model 2, 3α4:2β2): 3.59
- F (flipping equilibrium constant), Model-2 (3α4:2β2 nAChR [1]; Model 2, 3α4:2β2): 0.08
- Constant multiplier C (CE / CF) (3α4:2β2 nAChR [1]): 9.2 and 9.15
- Kd (3α4:2β2 nAChR [1]; [5]): 833 nM
- Kd (3α4:2β2 nAChR [1]; [6]): 836 nM
- I/I1mM ACh (maximum response normalized to 1 mM ACh) (2α4:3β2 nAChR; 2α4:3β2, ligand alone): 330 ± 10%
- Agonist type (2α4:3β2 nAChR): super agonist
- Decrease of EC50 value by co-application of NS9283 (3α4:2β2 nAChR [2]): 3.1 fold
- Increase of maximum response by co-application of NS9283 (3α4:2β2 nAChR [2]): 2.9 fold
- Est Pomax (3α4:2β2 nAChR [2]; [7]): 59% and 59 ± 1.5%
- I/I1mM ACh (maximum response normalized to 1 mM ACh) (3α4:2β2 nAChR [2]; 3α4:2β2, ligand alone): 41 ±4%
- Est Pomax (3α4:2β2 nAChR [2]; 3α4:2β2, ligand alone): 20% and 20 ± 2%
- Agonist type (3α4:2β2 nAChR [2]): partial agonists
- Difference of EC50 values between 3α4:2β2 and 2α4:3β2 receptors (3α4:2β2 nAChR [2]; 3α4:2β2 vs 2α4:3β2): 5 fold
- I/I1mM ACh [3]: 0* %
- Activation of 3α4:2β2^HQT mutant receptors [3]: do not activate; also recorded: Neither Saz-A or TC-2559 activated

Compound: N#Cc1cccc(-c2nc(-c3cccnc3)no2)c1 [NS9283]
- Constant multiplier C (CE / CF), averaged over Saz-A and TC-2559 (3α4:2β2 nAChR [1]; NS9283 potentiation of Saz-A and TC-2559 activation, averaged): 8.94

Compound: OCCCCC#Cc1cncc(OC[C@@H]2CCN2)c1 [Saz-A, Sazetidine-A]
- D (desensitized equilibrium constant), Model-1 (3α4:2β2 nAChR [1]; Model 1, 3α4:2β2): 0.50
- E (gating equilibrium constant), Model-1 (3α4:2β2 nAChR [1]; Model 1, 3α4:2β2): 0.10
- E (gating equilibrium constant), Model-2 (3α4:2β2 nAChR [1]; Model 2, 3α4:2β2): 1.99
- F (flipping equilibrium constant), Model-2 (3α4:2β2 nAChR [1]; Model 2, 3α4:2β2): 0.05
- Constant multiplier C (CE / CF) (3α4:2β2 nAChR [1]): 8.7 and 8.75
- Kd (3α4:2β2 nAChR [1]; [5]): 27 nM
- Kd (3α4:2β2 nAChR [1]; [6]): 27 nM
- I/I1mM ACh (maximum response normalized to 1 mM ACh) (2α4:3β2 nAChR; 2α4:3β2, ligand alone): 108 ± 6%
- EC50 (2α4:3β2 nAChR; 2α4:3β2, ligand alone, Hill co-efficient of one): 10 nM
- Agonist type (2α4:3β2 nAChR): full agonist
- Decrease of EC50 value by co-application of NS9283 (3α4:2β2 nAChR [2]): 2 fold
- Increase of maximum response by co-application of NS9283 (3α4:2β2 nAChR [2]): 4.4 fold
- Est Pomax (3α4:2β2 nAChR [2]; [7]): 39% and 39 ± 1.5%
- I/I1mM ACh (maximum response normalized to 1 mM ACh) (3α4:2β2 nAChR [2]; 3α4:2β2, ligand alone): 18 ± 1.4%
- EC50 (3α4:2β2 nAChR [2]; 3α4:2β2, ligand alone, Hill co-efficient of one): 23 nM
- Est Pomax (3α4:2β2 nAChR [2]; 3α4:2β2, ligand alone): 9.1% and 9 ± 0.7%
- Agonist type (3α4:2β2 nAChR [2]): partial agonists
- I/I1mM ACh [3]: 0* %
- Activation of 3α4:2β2^HQT mutant receptors [3]: do not activate; also recorded: Neither Saz-A or TC-2559 activated

Compound: CC(=O)OCC[N+](C)(C)C [ACh, acetylcholine]
- Est Pomax (3α4:2β2 nAChR [2]; 3α4:2β2, ligand alone): 51 ± 5%
- Potency of α4-α4 binding site relative to α4-β2 binding site (less potent) (3α4:2β2 nAChR [4]): ~ 100 fold
